Laboratory results: patent publication US20250176599A1, “FLAVOR COMPOSITION AND FOOD AND BEVERAGE” (TAKASAGO INTERNATIONAL CORPORATION, priority 2021, published 2025)

Key:
[1] = Sensory evaluation of aqueous solution VI containing 1,5-octadien-3-ol 10 ppb: off-flavor intensity and masking component intensity; details: aqueous solution VI, average panel score
Outline: (§1)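 Scores run 0–4 for two attributes: off-flavor intensity, judged against the unmasked spiked solution (4) and degradant-free water (0), and nootkatone's own perceptibility, judged absolutely. A panel of eight experienced tasters evaluated aqueous solutions of the degradation component containing added nootkatone.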

[2] = Sensory evaluation of degradation component-added soymilk II (1-octen-3-ol 500 ppb); details: average panel score
Experimental: (§2) To commercially available soymilk (“Delicious Unadjusted Soymilk” manufactured by Kikkoman Corporation), each degradation component was added to prepare degradation component-added soymilks at the concentrations listed in Table 23. To these degradation component-added soymilks, 1,4-dioxacycloheptadecan-5,17-dione was added at the concentrations listed in Table 23 to confirm the intensity of the off-flavor (masking effect) and the intensity of the masking components (impact on the flavor of the soymilk itself) for each sample.
(§3) Eight experienced panelists were selected to conduct a sensory evaluation similar to that of Example 1. […]

[3] = Sensory evaluation of aqueous solution II containing (E)-2-octenal 10 ppb: off-flavor intensity and masking component intensity; details: average panel score
Outline: as §1

[4] = Sensory evaluation of aqueous solution IV containing 1,5-octadien-3-one 100 ppt: off-flavor intensity and masking component intensity; details: aqueous solution IV, average panel score
Outline: as §1

[5] = Sensory evaluation of aqueous solution I containing (E)-2-nonenal 1 ppb: off-flavor intensity and masking component intensity; details: average panel score
Outline: as §1

[6] = Overall conclusion of the sensory evaluation across soymilks I and II
Experimental: as §2
Eight experienced panelists were selected to conduct a sensory evaluation similar to that of Example 1.
The same method as in Example 20 was used to confirm the intensity of the off-flavor (masking effect) derived from unsaturated fatty acids by α-methyl ionone and the intensity of the masking components (impact on the flavor of the soymilk itself).
The same method as in Example 20 was used to confirm the intensity of the off-flavor (masking effect) derived from unsaturated fatty acids by menthyl 3-hydroxybutyrate and the intensity of the masking components (impact on the flavor of the soymilk itself).

[7] = Sensory evaluation of degradation component-added soymilk I ((E)-2-nonenal 5 ppb); details: average panel score
Experimental: as §2, §3

[8] = Sensory evaluation of aqueous solution III containing 1-octen-3-one 1 ppb: off-flavor intensity and masking component intensity; details: average panel score
Outline: as §1

[9] = Sensory evaluation of aqueous solution V containing 1-octen-3-ol 10 ppb: off-flavor intensity and masking component intensity; details: average panel score
Outline: as §1

[10] = Overall conclusion of the sensory evaluation across aqueous solutions I to VI
Outline: as §1

CC(O)CC(=O)OC1CC(C)CCC1C(C)C (stereo not drawn) [menthyl 3-hydroxybutyrate]
2.0: Off-Flavor Intensity ([3]; 1 ppm added) | Off-Flavor Intensity ([4]; 50 ppm added) | Off-Flavor Intensity ([8]; 10 ppm added) | Off-Flavor Intensity ([9]; 10 ppm added)
2.9: Off-Flavor Intensity ([1]; 1 ppb added) | Off-Flavor Intensity ([1]; 10 ppb added) | Off-Flavor Intensity ([2]; 100 ppb added) | Masking Component Intensity ([2]; 100 ppm added) | Off-Flavor Intensity ([5]; 100 ppb added) | Off-Flavor Intensity ([8]; 10 ppb added) | Off-Flavor Intensity ([8]; 100 ppb added) | Off-Flavor Intensity ([9]; 10 ppb added)
0.1: Masking Component Intensity ([1]; 100 ppt added) | Masking Component Intensity ([4]; 1 ppb added) | Masking Component Intensity ([4]; 100 ppt added) | Masking Component Intensity ([5]; 10 ppt added) | Masking Component Intensity ([7]; 100 ppb added)
3.1: Masking Component Intensity ([4]; 50 ppm added) | Off-Flavor Intensity ([4]; 100 ppb added) | Off-Flavor Intensity ([5]; 1 ppb added) | Masking Component Intensity ([7]; 100 ppm added)
≤ 10 ppm: concentration that masks the off-flavor and does not affect the flavor of the food and/or beverage itself, upper limit [10]
0.4: Masking Component Intensity ([2]; 100 ppb added) | Masking Component Intensity ([3]; 10 ppt added) | Masking Component Intensity ([3]; 100 ppt added) | Masking Component Intensity ([7]; 1 ppm added) | Masking Component Intensity ([9]; 1 ppb added)
1.3: Off-Flavor Intensity ([1]; 50 ppm added) | Masking Component Intensity ([2]; 10 ppm added) | Off-Flavor Intensity ([7]; 100 ppm added)
1.5: Masking Component Intensity ([5]; 100 ppb added) | Off-Flavor Intensity ([7]; 50 ppm added) | Masking Component Intensity ([8]; 100 ppb added) | Off-Flavor Intensity ([9]; 50 ppm added)
2.3: Off-Flavor Intensity ([3]; 100 ppb added) | Masking Component Intensity ([7]; 50 ppm added)
3.0: Off-Flavor Intensity ([1]; 100 ppt added) | Off-Flavor Intensity ([3]; 1 ppb added) | Off-Flavor Intensity ([4]; 1 ppm added) | Off-Flavor Intensity ([5]; 10 ppb added)
0.8: Off-Flavor Intensity ([2]; 100 ppm added) | Masking Component Intensity ([4]; 100 ppb added) | Masking Component Intensity ([9]; 10 ppb added)
2.6: Masking Component Intensity ([4]; 10 ppm added) | Masking Component Intensity ([8]; 10 ppm added)
≥ 100 ppb: concentration that masks the off-flavor and does not affect the flavor of the soymilk itself, lower limit [6]
1.4: Masking Component Intensity ([1]; 1 ppm added) | Off-Flavor Intensity ([2]; 50 ppm added) | Masking Component Intensity ([3]; 100 ppb added) | Off-Flavor Intensity ([5]; 50 ppm added)
2.5: Masking Component Intensity ([1]; 10 ppm added) | Off-Flavor Intensity ([1]; 100 ppb added) | Off-Flavor Intensity ([2]; 1 ppm added) | Off-Flavor Intensity ([4]; 5 ppm added) | Off-Flavor Intensity ([4]; 10 ppm added) | Off-Flavor Intensity ([5]; 1 ppm added) | Masking Component Intensity ([5]; 10 ppm added) | Off-Flavor Intensity ([9]; 1 ppm added)
≤ 100 ppm: concentration that masks the off-flavor and does not affect the flavor of the soymilk itself, upper limit [6]
1.9: Off-Flavor Intensity ([2]; 10 ppm added) | Masking Component Intensity ([2]; 50 ppm added) | Masking Component Intensity ([3]; 1 ppm added) | Off-Flavor Intensity ([3]; 10 ppm added) | Masking Component Intensity ([5]; 1 ppm added) | Off-Flavor Intensity ([5]; 10 ppm added) | Off-Flavor Intensity ([7]; 10 ppm added)
2.1: Off-Flavor Intensity ([1]; 1 ppm added) | Masking Component Intensity ([3]; 10 ppm added)
0.9: Masking Component Intensity ([1]; 100 ppb added) | Masking Component Intensity ([3]; 10 ppb added) | Masking Component Intensity ([5]; 10 ppb added)
2.4: Off-Flavor Intensity ([7]; 1 ppm added) | Off-Flavor Intensity ([8]; 1 ppm added) | Off-Flavor Intensity ([9]; 5 ppm added) | Masking Component Intensity ([9]; 10 ppm added)
≥ 10 ppt: concentration that masks the off-flavor and does not affect the flavor of the food and/or beverage itself, lower limit [10]
0.6: Masking Component Intensity ([1]; 10 ppb added) | Masking Component Intensity ([3]; 1 ppb added) | Masking Component Intensity ([4]; 10 ppb added) | Masking Component Intensity ([5]; 1 ppb added) | Masking Component Intensity ([8]; 1 ppb added)
2.8: Off-Flavor Intensity ([3]; 10 ppb added) | Off-Flavor Intensity ([7]; 100 ppb added) | Off-Flavor Intensity ([9]; 100 ppb added)
3.6: Masking Component Intensity ([1]; 50 ppm added) | Off-Flavor Intensity ([5]; 10 ppt added) | Off-Flavor Intensity ([8]; 10 ppt added) | Off-Flavor Intensity ([8]; 100 ppt added)
3.5: Masking Component Intensity ([3]; 50 ppm added) | Masking Component Intensity ([5]; 50 ppm added) | Masking Component Intensity ([8]; 50 ppm added) | Masking Component Intensity ([9]; 50 ppm added) | Off-Flavor Intensity ([9]; 100 ppt added)
1.6: Off-Flavor Intensity ([1]; 10 ppm added) | Masking Component Intensity ([9]; 5 ppm added)
0.5: Masking Component Intensity ([2]; 1 ppm added)
1.0: Masking Component Intensity ([8]; 10 ppb added) | Masking Component Intensity ([9]; 1 ppm added) | Masking Component Intensity ([9]; 100 ppb added)
0.3: Masking Component Intensity ([1]; 1 ppb added) | Masking Component Intensity ([5]; 100 ppt added) | Masking Component Intensity ([8]; 10 ppt added) | Masking Component Intensity ([8]; 100 ppt added) | Masking Component Intensity ([9]; 100 ppt added)
3.4: Off-Flavor Intensity ([3]; 10 ppt added) | Off-Flavor Intensity ([3]; 100 ppt added) | Off-Flavor Intensity ([4]; 10 ppb added) | Off-Flavor Intensity ([5]; 100 ppt added) | Off-Flavor Intensity ([8]; 1 ppb added)
3.8: Off-Flavor Intensity ([4]; 1 ppb added) | Off-Flavor Intensity ([4]; 100 ppt added)
3.3: Off-Flavor Intensity ([9]; 1 ppb added)
1.1: Off-Flavor Intensity ([3]; 50 ppm added) | Masking Component Intensity ([4]; 1 ppm added) | Masking Component Intensity ([7]; 10 ppm added)
1.8: Masking Component Intensity ([1]; 5 ppm added) | Off-Flavor Intensity ([1]; 5 ppm added) | Masking Component Intensity ([4]; 5 ppm added) | Masking Component Intensity ([8]; 1 ppm added) | Off-Flavor Intensity ([8]; 50 ppm added)
